Read-outs that look alike come from different tables or passages of the source. *1 amine or outer side, *2 acyl side, *3 side chain or, on linkers, in order; H or OH if unused. Where a SMILES comes first, the peptide text is derived from it. Bridges are numbered along the chain shown (N, C = ends). X1 = O=C(CCC[*:2])[*:1]
Experiments:
[1] = simulated gi fluid, pH 1.2
[2] = simulated gi fluid, pH 6.8
[3] = molecular target: T1, human oxytocin receptor (OTR) (Homo sapiens, UniProt P30559); experiment: NIMH PDSP FLIPR-TETRA Ca2+-mobilization assay; assay type: cell-based
T1 construct: NIMH PDSP (data provider)
T1 sequence (P30559 1-389): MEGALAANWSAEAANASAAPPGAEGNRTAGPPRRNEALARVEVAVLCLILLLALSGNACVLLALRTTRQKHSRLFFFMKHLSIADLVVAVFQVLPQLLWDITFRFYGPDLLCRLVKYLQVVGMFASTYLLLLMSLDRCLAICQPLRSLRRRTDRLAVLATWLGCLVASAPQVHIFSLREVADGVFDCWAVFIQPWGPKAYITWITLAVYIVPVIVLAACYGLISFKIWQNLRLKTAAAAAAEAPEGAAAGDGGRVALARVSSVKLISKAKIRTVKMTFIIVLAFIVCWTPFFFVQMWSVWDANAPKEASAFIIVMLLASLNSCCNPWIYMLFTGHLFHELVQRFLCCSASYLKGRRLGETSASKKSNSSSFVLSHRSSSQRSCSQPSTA

[4] = molecular target: T2, hOTR (Homo sapiens, UniProt P30559); experiment: cell-based
T2 construct: expressed in transfected cells; host or cells: COS-1 cells (ATCC), transient transfection with FuGENE HD
T2 sequence (P30559 1-389): T1 sequence (P30559 1-389)

[5] = in vitro; conditions: pig, simulated gi fluid, pH 6.8

## CC(C)C[C@@H]1NC(=O)CNC(=O)[C@H](CC(N)=O)NC(=O)[C@H](CCCNC(=N)N)NC(=O)[C@H]([C@@H](C)O)NC(=O)[C@@H]2CSSC[C@@H]3NC(=O)[C@H]([C@@H](C)O)NC(=O)CNC(=O)CNC(=O)[C@H](C(C)C)NC(=O)[C@@H]4CSSC[C@H](NC(=O)[C@H]([C@@H](C)O)NC(=O)[C@H](CSSC[C@H](NC(=O)[C@H](C(C)C)NC(=O)[C@@H]5CCCN5C1=O)C(=O)NCC(=O)N[C@@H](CCC(=O)O)C(=O)N[C@@H]([C@@H](C)O)C(=O)N4)NC(=O)CNC(=O)[C@@H]1CCCN1C(=O)[C@H]([C@@H](C)O)NC(=O)[C@H](CC(N)=O)NC3=O)C(=O)N[C@@H](CO)C(=O)N[C@@H](Cc1c[nH]c3ccccc13)C(=O)N1CCC[C@H]1C(=O)N[C@@H](C(C)C)C(=O)N2 [Kalata B1, reference compound]
[1]
  t1/2 SGF: >24 h
[2]
  t1/2 SIF: >24 h

## CC(C)C[C@H](NC(=O)[C@@H]1CSSC[C@@H]2NC(=O)[C@H](CC(C)C)NC(=O)[C@H](CCC(=O)O)NC(=O)[C@@H](NC(=O)[C@H](CCC(=O)O)NC(=O)[C@H](CC(=O)O)NC(=O)[C@@H](N)CC(N)=O)CSSC[C@H](NC(=O)[C@H](C)NC(=O)[C@H](C(C)C)NC(=O)[C@H](CC(N)=O)NC(=O)[C@H](C(C)C)NC2=O)C(=O)N[C@@H]([C@@H](C)O)C(=O)NCC(=O)N1)C(=O)O [Plecanatide, reference compound]
[1]
  t1/2 SGF: >24 h
[2]; pig
  t1/2 SIF: 0.083 ± 0.017 h

## CC[C@H](C)[C@@H]1NC(=O)[C@H](Cc2ccc(O)cc2)NC(=O)[C@@H](N)CSSC[C@@H](C(=O)N2CCC[C@H]2C(=O)N[C@@](C)(CC(C)C)C(=O)NCC(N)=O)NC(=O)[C@H](CC(N)=O)NC(=O)[C@H](CCC(N)=O)NC1=O [(Cα-Me)L^8OT]
[3]
  EC50: 3.8 ± 2.7 nM
  Emax ± SEM OTR: 105 ± 11
  bioactivity at OTR compared to native OT: equipotent to native OT
[2]; pig
  t1/2 SIF: 4.4 ± 0.3 h

## CC[C@H](C)[C@@H]1NC(=O)[C@H](Cc2ccc(O)cc2)NC(=O)[C@@H]2CSSC[C@@H]3NC(=O)[C@H](C(C)C)NC(=O)[C@@H]4CCCN4C(=O)[C@H](Cc4c[nH]c5ccccc45)NC(=O)[C@H](CO)NC(=O)[C@@H]4CSSC[C@H](NC(=O)[C@H]([C@@H](C)O)NC(=O)[C@H](CCC(=O)O)NC(=O)CNC(=O)[C@H](CSSC[C@H](NC(=O)[C@H](CC(N)=O)NC(=O)[C@H](CCC(N)=O)NC1=O)C(=O)N[C@@H]([C@@H](C)O)C(=O)N4)NC(=O)[C@H](C(C)C)NC(=O)[C@@H]1CCCN1C(=O)[C@H](CC(C)C)NC(=O)CNC(=O)[C@H](CC(N)=O)NC(=O)[C@H](CCCNC(=N)N)NC(=O)[C@H]([C@@H](C)O)NC3=O)C(=O)N[C@@H](C(C)C)C(=O)NCC(=O)NCC(=O)N[C@@H]([C@@H](C)O)C(=O)N2 [KB1(OT^[2-5])]
[4]
  EC50: > 10 µM
[2]
  t1/2 SIF: >24 h

## CC[C@H](C)[C@@H]1NC(=O)[C@@H]2CSSC[C@H](NC(=O)[C@H](CCCNC(=N)N)NC(=O)[C@@H]3CSSC[C@H](NC1=O)C(=O)N[C@@H]([C@@H](C)O)C(=O)N[C@@H](CCCNC(=N)N)C(=O)NCC(=O)N[C@@H](Cc1ccccc1)C(=O)N3)C(=O)N[C@@H](CC(C)C)C(=O)N[C@H]1CSSC[C@H](NC(=O)[C@H](C(C)C)NC(=O)CNC(=O)[C@H](CCCNC(=N)N)NC(=O)[C@H](CCCNC(=N)N)NC1=O)C(=O)N[C@@H](CCCNC(=N)N)C(=O)N2 [RTD-1] (HELM PEPTIDE1{G.F.C.R.C.L.C.R.R.G.V.C.R.C.I.C.T.R}$PEPTIDE1,PEPTIDE1,3:R3-16:R3|PEPTIDE1,PEPTIDE1,5:R3-14:R3|PEPTIDE1,PEPTIDE1,7:R3-12:R3|PEPTIDE1,PEPTIDE1,1:R1-18:R2$$$V2.0)
[5]
  half-life: < 3 min
[1]
  t1/2 SGF: 2.2 ± 0.3 h
[2]
  t1/2 SIF: 0.05 ± 0.017 h

## CC[C@H](C)[C@@H]1NC(=O)[C@H](Cc2ccc(O)cc2)NC(=O)[C@@H](N)CSSC[C@@H](C(=O)N2CCC[C@H]2C(=O)N[C@H](CC(=O)NCC(N)=O)CC(C)C)NC(=O)[C@H](CC(N)=O)NC(=O)[C@H](CCC(N)=O)NC1=O [(β^3-homo)L^8OT]
[2]; pig
  t1/2 SIF: 3.6 ± 0.1 h

## CC[C@H](C)[C@@H]1NC(=O)[C@H](Cc2ccc(O)cc2)NC(=O)[C@@H]2CSSC[C@@H]3NC(=O)[C@H](C(C)C)NC(=O)[C@@H]4CCCN4C(=O)[C@H](Cc4c[nH]c5ccccc45)NC(=O)[C@H](CO)NC(=O)[C@@H]4CSSC[C@H](NC(=O)[C@H]([C@@H](C)O)NC(=O)[C@H](CCC(=O)O)NC(=O)CNC(=O)[C@H](CSSC[C@H](NC(=O)[C@H](CC(N)=O)NC(=O)[C@H]([C@@H](C)O)NC1=O)C(=O)N[C@@H]([C@@H](C)O)C(=O)N4)NC(=O)[C@H](C(C)C)NC(=O)[C@@H]1CCCN1C(=O)[C@H](CC(C)C)NC(=O)CNC(=O)[C@H](CC(N)=O)NC(=O)[C@H](CCCNC(=N)N)NC(=O)[C@H]([C@@H](C)O)NC3=O)C(=O)N[C@@H](C(C)C)C(=O)NCC(=O)NCC(=O)N[C@@H]([C@@H](C)O)C(=O)N2 [KB1(T^4G^7OT^[2-5])]
[4]
  EC50: > 10 µM
[2]
  t1/2 SIF: >24 h

## CC(C)C[C@@H]1NC(=O)[C@H](CCC(=O)O)NC(=O)[C@@H](NC(=O)[C@H](CCC(=O)O)NC(=O)[C@H](CC(=O)O)NC(=O)[C@H](N)CC(N)=O)CSSC[C@@H]2NC(=O)[C@H](C)NC(=O)[C@H](C(C)C)NC(=O)[C@H](CC(N)=O)NC(=O)[C@H](C(C)C)NC(=O)[C@H](CSSC[C@@H](C(=O)N[C@H](CC(C)C)C(=O)O)NC(=O)CNC(=O)[C@H]([C@@H](C)O)NC2=O)NC1=O [Dolcanatide, reference compound]
[1]
  t1/2 SGF: >24 h
[2]
  t1/2 SIF: >24 h

## CC[C@H](C)[C@@H]1NC(=O)[C@H](Cc2ccc(O)cc2)NC(=O)[C@@H](N)CSSC[C@@H](C(=O)N2CCC[C@H]2C(=O)N[C@@H](CC(C)C)C(=O)NCC(N)=O)NC(=O)[C@H](CC(N)=O)NC(=O)[C@H](CCC(N)=O)NC1=O [Oxytocin, reference compound]
[1]
  t1/2 SGF: >24 h
[2]; pig
  t1/2 SIF: 0.13 ± 0.017 h

## CC[C@H](C)[C@@H]1NC(=O)[C@H](Cc2ccc(O)cc2)NC(=O)[C@@H](N)CSSC[C@@H](C(=O)N2CCC[C@H]2C(=O)N[C@@H](CC(C)C)C(=O)NNC(N)=O)NC(=O)[C@H](CC(N)=O)NC(=O)[C@H](CCC(N)=O)NC1=O [G^9(aza)OT]
[3]
  EC50: 2.24 ± 0.63 nM
  Emax ± SEM OTR: 111 ± 6
[2]
  t1/2 SIF: <0.05 h

## CC[C@H](C)[C@@H]1NC(=O)[C@H](Cc2ccc(OC)cc2)NC(=O)CCCSC[C@@H](C(=O)N2CCC[C@H]2C(=O)N[C@@H](CC(C)C)C(=O)NCC(N)=O)NC(=O)[C@H](CC(N)=O)NC(=O)[C@H](CCC(N)=O)NC1=O [Carbetocin, reference compound] (Y(Me)IQNCPLG-NH2; linker N-5 via X1)
[1]
  t1/2 SGF: >24 h
[2]; pig
  t1/2 SIF: 0.217 ± 0.017 h

## NC(=O)CC[C@@H]1NC(=O)[C@H](Cc2ccccc2)NC(=O)[C@H](Cc2ccc(O)cc2)NC(=O)[C@@H](N)CSSC[C@@H](C(=O)N2CCC[C@H]2C(=O)N[C@@H](CCCN=C(N)N)C(=O)NCC(N)=O)NC(=O)[C@H](CC(N)=O)NC1=O [Vasopressin, reference compound]
[1]
  t1/2 SGF: >24 h
[2]
  t1/2 SIF: <0.05 h

Source: publication PMC9059125 (Journal of Medicinal Chemistry, 2022)
